One assay concerns the target JAK2 (Homo sapiens (Human), UniProt O60674). The assay is described as follows: Inhibition of enzymatic JAK2 kinase activity (TR-FRET). The class given is biochemical. The following applies: read-out: IC50 JAK. From the text: The objective of this assay was to screen compounds in a Time-resolved fluorescence resonance energy transfer (TR-FRET) Enzymatic assay method for their potential to inhibit JAK2 (Janus kinase) activity.
TR-FRET assays are homogeneous proximity assays where Eu-labeled antiphosphotyrosine antibody binds to the phosphorylated substrates labeled with Ulight fluorescence acceptor. Eu can transfer energy to Ulight accepter in the complex and the interaction of two dye-labeled binding partners is detected by the energy transfer between a donor and an acceptor dye, and the subsequent light emission by the acceptor dye. The intensity of the light emission is proportional to the level of Ulight peptide phosphorylation.
Two μL of 10% DMSO in blank, substrate control and positive control wells and 2 μL of test compound in test wells was added. Thirteen μL of assay buffer in blank and substrate control wells and 13 μL of Enzyme buffer mix in positive and test wells was added. The reaction mixture was incubated for 30 minutes at RT on a plate shaker. Ultra Light-pGT substrate (5 μL) [poly Glu-Tyr (4:1) labeled with U Light TM dye, a tyrosine kinase substrate] and ATP mix was added to all wells. The reaction plate was incubated for 60 minutes at RT on a plate shaker. The reaction was stopped by adding 40 mM EDTA (10 μL) in buffer. Ten μL of antibody was added to all the wells. The plate was read in a Wallac® 1420 Multilabel Counter Victor 3 instrument (Ex: 340 nm Em: 615 & 665 nm) The following calculations were made:
F@ 665 Value-Buffer blank
F@ 615 Value-Buffer blank
Ratio of F@665/F@615-Substrate Blank
% Activity=(Test Sample/Positive control)*100%
Inhibition=(100−% Activity)

Assay [1] deals with Syk (356-635 amino acids) catalytic domain (Homo sapiens (Human), UniProt P43405). Description: Inhibition of enzymatic Syk kinase activity (radiometric). The following applies: read-out: IC50 Syk. The class given is biochemical. In short, it runs like this:
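Radiometric filter-binding format: 32P transfer from γ-32P-ATP onto pG4T, scintillation-counted after acid washes of P81 paper. Syk kinase domain (356-635), 0.035–7.5 ng per reaction, was exposed to compound for 30 minutes at room temperature before a 10-minute, 30° C. reaction with ATP (100 μM stock). Inhibition derived from counts with versus without compound.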

Counter-ions that a name gives are not always drawn.

JAK2, sequence (O60674 808-1132): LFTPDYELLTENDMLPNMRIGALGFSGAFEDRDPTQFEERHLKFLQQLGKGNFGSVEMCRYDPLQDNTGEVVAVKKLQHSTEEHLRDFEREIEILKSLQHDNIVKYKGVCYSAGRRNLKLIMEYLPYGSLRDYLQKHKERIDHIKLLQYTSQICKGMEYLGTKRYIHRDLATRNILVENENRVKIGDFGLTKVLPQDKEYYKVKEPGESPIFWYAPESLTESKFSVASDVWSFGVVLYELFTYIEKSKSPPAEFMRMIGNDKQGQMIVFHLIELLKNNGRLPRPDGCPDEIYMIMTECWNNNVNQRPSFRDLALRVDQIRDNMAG

Regarding `O=C(O)CN1CCC(c2ccc(Nc3nc(-c4ccccc4)nc4cn[nH]c(=O)c34)cc2)CC1` [Example 86, 2-(4-(4-((5-oxo-2-phenyl-5,6-dihydropyrimido[4,5-d]pyridazin-4-yl)amino)phenyl)piperidin-1-yl)acetic acid], the IC50 (at JAK2; in assay [1]) was less than 50 nM in each case.

For `CN1CCN(c2nc(Nc3ccc(CN4CCNCC4)cc3)c3c(=O)[nH]ncc3n2)CC1` [Example 45, 2-(4-methylpiperazin-1-yl)-4-((4-(piperazin-1-ylmethyl)phenyl)amino) pyrimido[4,5-d]pyridazin-5(6H)-one hydrochloride], the concentration for half-maximal inhibition (IC50) (at JAK2; in assay [1]) was more than 100 nM throughout.

For `COC(=O)c1ccc(-c2nc(Nc3ccc(CN4CCNCC4)cc3)c3c(=O)[nH]ncc3n2)cc1` [Example 2, Methyl 4-(5-oxo-4-(4-(piperazin-1-ylmethyl)phenylamino)-5,6-dihydropyrimido[4,5-d]pyridazin-2-yl)benzoate hydrochloride], the IC50 is more than 100 nM at JAK2 and less than 100 nM in assay [1].

`N#CCC1CCN(c2nc(Nc3ccc(N4CCC(CCO)CC4)cc3)c3c(=O)[nH]ncc3n2)CC1` [Example 196, 2-(1-(4-((4-(4-(2-hydroxyethyl)piperidin-1-yl)phenyl)amino)-5-oxo-5,6-dihydropyrimido[4,5-d]pyridazin-2-yl)piperidin-4-yl)acetonitrile]: the IC50 (on JAK2; in assay [1]) was less than 10 nM each time.

With `CN1CCN(Cc2ccc(Nc3nc(N4CCCCCC4)nc4cn[nH]c(=O)c34)cc2)CC1` [Example 85, 2-(azepan-1-yl)-4-((4-((4-methylpiperazin-1-yl)methyl)phenyl)amino)pyrimido[4,5-d]pyridazin-5(6H)-one], the half-maximal inhibitory concentration (IC50) was less than 10 nM on JAK2 and less than 50 nM in assay [1].

For `O=c1[nH]ncc2nc(N3CCOCC3)nc(Nc3ccc(CN4CCNCC4)cc3)c12` [Example 3, 2-morpholino-4-(4-(piperazin-1-ylmethyl)phenylamino)pyrimido[4,5-d]pyridazin-5(6H)-one hydrochloride], the IC50 on JAK2 was less than 100 nM; in assay [1] it was more than 100 nM.

For the compound `N#CCC1CCN(c2nc(Nc3ccc(N4CCCC(CC(=O)O)C4)cc3)c3c(=O)[nH]ncc3n2)CC1` (stereo not drawn) [Example 250, 2-(1-(4-((2-(4-(cyanomethyl)piperidin-1-yl)-5-oxo-5,6-dihydropyrimido[4,5-d]pyridazin-4-yl)amino)phenyl)piperidin-3-yl)acetic acid], the IC50 at JAK2 is less than 10 nM; in assay [1], less than 50 nM.

As for `O=c1[nH]ncc2nc(N3CCCCCC3)nc(Nc3ccc(N4CCCC(CCO)C4)cc3)c12` (stereo not drawn) [Example 272, 2-(azepan-1-yl)-4-((4-(3-(2-hydroxyethyl)piperidin-1-yl)phenyl)amino) pyrimido[4,5-d]pyridazin-5(6H)-one], the values for the IC50 (at JAK2; in assay [1]) were less than 10 nM and less than 50 nM, respectively.

Regarding `N#CCC(=O)N1CCN(c2ccc(Nc3nc(N4CCC(CC#N)CC4)nc4cn[nH]c(=O)c34)cn2)CC1` [Example 237, 3-(4-(5-((2-(4-(cyanomethyl)piperidin-1-yl)-5-oxo-5,6-dihydropyrimido[4,5-d]pyridazin-4-yl)amino)pyridin-2-yl)piperazin-1-yl)-3-oxopropanenitrile], the IC50 on JAK2 is less than 10 nM; in assay [1] it was less than 50 nM.

As to `O=c1[nH]ncc2nc(-c3ccccc3)nc(Nc3ccc(CN4CCC5(CC4)COC5)cc3)c12` [Example 23, 4-(4-(2-oxa-7-azaspiro[3.5]nonan-7-ylmethyl)phenylamino)-2-phenylpyrimido[4,5-d]pyridazin-5(6H)-one], the half-maximal inhibitory concentration (IC50) is less than 100 nM on JAK2 and less than 50 nM in assay [1].

`CCN1CCN(c2ccc(Nc3nc(N4CCCCCC4)nc4cn[nH]c(=O)c34)cn2)CC1` [Example 229, 2-(azepan-1-yl)-4-((6-(4-ethylpiperazin-1-yl)pyridin-3-yl)amino)pyrimido[4,5-d]pyridazin-5(6H)-one]: the results for the concentration for half-maximal inhibition (IC50) (on JAK2; in assay [1]) were less than 10 nM and less than 50 nM, respectively.

Take `CC(C)(O)C(=O)N1CCN(CCOc2ccc(Nc3nc(N4CCCCCC4)nc4cn[nH]c(=O)c34)cc2)CC1` [Example 115, 2-(azepan-1-yl)-4-((4-(2-(4-(2-hydroxy-2-methylpropanoyl)piperazin-1-yl)ethoxy)phenyl)amino)pyrimido[4,5-d]pyridazin-5(6H)-one]: the concentration for half-maximal inhibition (IC50) (at JAK2; in assay [1]) was less than 50 nM in each case.

For the compound `CCN1CCN(c2ccc(Nc3nc(-c4ccsc4)nc4cn[nH]c(=O)c34)cc2)CC1` [Example 37, 4-(4-(4-ethylpiperazin-1-yl)phenylamino)-2-(thiophen-3-yl)pyrimido[4,5-d]pyridazin-5(6H)-one hydrochloride], the half-inhibitory concentration (IC50) on JAK2 was less than 100 nM; in assay [1], less than 10 nM.

For the compound `O=C(O)CN1CCN(CCOc2ccc(Nc3nc(N4CCCCCC4)nc4cn[nH]c(=O)c34)cc2)CC1` [Example 106, 2-(4-(2-(4-((2-(azepan-1-yl)-5-oxo-5,6-dihydropyrimido[4,5-d]pyridazin-4-yl)amino)phenoxy)ethyl)piperazin-1-yl) acetic acid], the IC50 (on JAK2; in assay [1]) was less than 50 nM in each case.

Regarding `O=C(CC1CCN(c2ccc(Nc3nc(N4CCCCCC4)nc4cn[nH]c(=O)c34)cc2)CC1)NCCO` [Example 109, 2-(1-(4-((2-(azepan-1-yl)-5-oxo-5,6-dihydropyrimido[4,5-d]pyridazin-4-yl)amino)phenyl)piperidin-4-yl)-N-(2-hydroxyethyl)acetamide], the IC50 (at JAK2; in assay [1]) was less than 10 nM in each case.

With `COc1ccc(-c2nc(Nc3ccc(CN4CCNCC4)cc3)c3c(=O)[nH]ncc3n2)cc1` [Example 41, 2-(4-methoxyphenyl)-4-(4-(piperazin-1-ylmethyl)phenylamino)pyrimido[4,5-d]pyridazin-5(6H)-one hydrochloride], the IC50 at JAK2 is more than 100 nM; in assay [1], less than 100 nM.

Consider `O=c1[nH]ncc2nc(N3CCCCCC3)nc(Nc3ccc(OC[C@@H]4CO[C@@H](CO)CO4)cc3)c12` [Example 110, 2-(azepan-1-yl)-4-((4-(((2S,5S)-5-(hydroxymethyl)-1,4-dioxan-2-yl)methoxy)phenyl)amino)pyrimido[4,5-d]pyridazin-5(6H)-one], for which the IC50 was less than 50 nM on JAK2 and less than 10 nM in assay [1].

For the compound `N#CCC(=O)N1CCN(c2ccc(Nc3nc(N4CCC(CC#N)CC4)nc4cn[nH]c(=O)c34)cc2)CC1` [Example 240, 3-(4-(4-((2-(4-(cyanomethyl)piperidin-1-yl)-5-oxo-5,6-dihydropyrimido[4,5-d]pyridazin-4-yl)amino)phenyl)piperazin-1-yl)-3-oxopropanenitrile], the IC50 at JAK2 was less than 10 nM; in assay [1] it was less than 50 nM.

Consider `COC1CCN(c2ccc(Nc3nc(N4CCCCCC4)nc4cn[nH]c(=O)c34)cc2)CC1` [Example 288, 2-(azepan-1-yl)-4-((4-(4-methoxypiperidin-1-yl)phenyl)amino) pyrimido[4,5-d]pyridazin-5(6H)-one], for which the IC50 (on JAK2; in assay [1]) was less than 50 nM in each case.

Turning to `N#CCC1CCN(c2nc(Nc3ccc(N4CCN(CC#N)CC4)cc3)c3c(=O)[nH]ncc3n2)CC1` [Example 207, 2-(1-(4-((4-(4-(cyanomethyl)piperazin-1-yl)phenyl)amino)-5-oxo-5,6-dihydropyrimido[4,5-d]pyridazin-2-yl)piperidin-4-yl)acetonitrile], the 50% inhibitory concentration (IC50) (on JAK2; in assay [1]) was less than 10 nM in each case.

For the compound `N#CCC(=O)N1CCN(c2ccc(Nc3nc(N4CCCCCC4)nc4cn[nH]c(=O)c34)cn2)CC1` [Example 234, 3-(4-(5-((2-(azepan-1-yl)-5-oxo-5,6-dihydropyrimido[4,5-d]pyridazin-4-yl)amino)pyridin-2-yl)piperazin-1-yl)-3-oxopropanenitrile], the results for the IC50 (on JAK2; in assay [1]) were less than 10 nM and less than 50 nM, respectively.

For the compound `CC(C)(C(=O)O)C1CCN(c2ccc(Nc3nc(-c4ccccc4)nc4cn[nH]c(=O)c34)cc2)CC1` [Example 143, 2-methyl-2-(1-(4-((5-oxo-2-phenyl-5,6-dihydropyrimido[4,5-d]pyridazin-4-yl)amino)phenyl)piperidin-4-yl)propanoic acid], the IC50 on JAK2 is more than 100 nM; in assay [1], less than 50 nM.

As for `N#CCC1CCN(c2nc(Nc3ccc(CCCO)cc3)c3c(=O)[nH]ncc3n2)CC1` [Example 309, 2-(1-(4-((4-(3-hydroxypropyl)phenyl)amino)-5-oxo-5,6-dihydropyrimido[4,5-d]pyridazin-2-yl)piperidin-4-yl) acetonitrile], the IC50 (on JAK2; in assay [1]) was less than 50 nM each time.

For the compound `N#CCC1CCN(c2nc(Nc3ccc(N4CCC(CCF)CC4)cc3)c3c(=O)[nH]ncc3n2)CC1` [Example 299, 2-(1-(4-((4-(4-(2-fluoroethyl)piperidin-1-yl)phenyl)amino)-5-oxo-5,6-dihydropyrimido[4,5-d]pyridazin-2-yl)piperidin-4-yl)acetonitrile], the 50% inhibitory concentration (IC50) (at JAK2; in assay [1]) was less than 50 nM throughout.

(Values after patent publication US10183944B2 (Asana Biosciences, LLC, priority 2011, dated 2019).)
